This passage reports IC50 results from patent US20080194546A1, “Pyrido-, Pyrazo- and Pyrimido-Pyrimidine Derivatives as mTOR Inhibitors” (KuDOS Pharmaceuticals Limited, priority 2005, published 2008).

The first assay concerns the target T1, mTOR (Homo sapiens, UniProt P42345).
T1 construct: mTOR protein was isolated from HeLa cell cytoplasmic extract by immunoprecipitation; endogenous in cells; host or cells: HeLa cell cytoplasmic extract (immunoprecipitate)
The assay can be described thus: Biological Assay: mTOR enzyme activity, mTOR immunoprecipitated from HeLa cell cytoplasmic extract, recombinant PHAS-1 as substrate. The format is biochemical. As to conditions: Biological Assay, upper bounds; read-out: IC50 values against mTOR.
Source text: For mTOR enzyme activity assays, mTOR protein was isolated from HeLa cell cytoplasmic extract by immunoprecipitation, and activity determined essentially as described previously using recombinant PHAS-1 as a substrate (ref. 21).
Take `C[C@@H]1CN(c2nc(N3CCOCC3)c3ccc(NC4CCC4)nc3n2)C[C@H](C)O1` [Example 2ai]: the IC50 (usually the concentration at which inhibition is half-maximal) was less than 10 µM. Same read-out and setting: the figure for `C[C@@H]1CN(c2nc(N3CCOCC3)c3ccc(NCC4CC4)nc3n2)C[C@H](C)O1` [Example 2aj] is less than 10 µM; for `CC1CCC(Nc2ccc3c(N4CCOCC4)nc(N4C[C@@H](C)O[C@@H](C)C4)nc3n2)CC1` (some centres unmarked) [Example 2al] it is less than 10 µM. Same read-out and setting: the figure for `C=CCNc1ccc2c(N3CCOCC3)nc(N3C[C@@H](C)O[C@@H](C)C3)nc2n1` [Example 2am] is less than 10 µM; for `COC(=O)c1ccc(Nc2ccc3c(N4CCOCC4)nc(N4C[C@@H](C)O[C@@H](C)C4)nc3n2)o1` [Example 2an] it is less than 10 µM; for `Cc1nnc(Nc2ccc3c(N4CCOCC4)nc(N4C[C@@H](C)O[C@@H](C)C4)nc3n2)o1` [Example 2ao] it is less than 10 µM. For `C[C@@H]1CN(c2nc(N3CCOCC3)c3ccc(Nc4oc(-c5ccccc5)cc4C#N)nc3n2)C[C@H](C)O1` [Example 2ap], the 50% inhibitory concentration (IC50) is less than 1 µM. On the same count and under the same terms, the result for `C[C@@H]1CN(c2nc(N3CCOCC3)c3ccc(Nc4ccsc4)nc3n2)C[C@H](C)O1` [Example 2aq] reads less than 1 µM; that for `C[C@@H]1CN(c2nc(N3CCOCC3)c3ccc(Nc4nc[nH]c4C#N)nc3n2)C[C@H](C)O1` [Example 2ar], less than 1 µM. Turning to `COC(=O)c1cc(Nc2ccc3c(N4CCOCC4)nc(N4C[C@@H](C)O[C@@H](C)C4)nc3n2)cn1C` [Example 2as], the IC50 is less than 1 µM.

Turning to `C[C@@H]1CN(c2nc(N3CCOCC3)c3ccc(Nc4nc5cncnc5[nH]4)nc3n2)C[C@H](C)O1` [Example 2au], the IC50 was less than 10 µM. Same read-out and setting: the figure for `C[C@@H]1CN(c2nc(N3CCOCC3)c3ccc(Nc4nccc5cccnc45)nc3n2)C[C@H](C)O1` [Example 2av] is less than 1 µM. Same read-out and setting: the figure for `C[C@@H]1CN(c2nc(N3CCOCC3)c3ccc(Nc4ccnc(-c5cccnc5)n4)nc3n2)C[C@H](C)O1` [Example 2aw] is less than 1 µM; for `C[C@@H]1CN(c2nc(N3CCOCC3)c3ccc(Nc4nccc(-c5ccco5)n4)nc3n2)C[C@H](C)O1` [Example 2ax] it is less than 1 µM. In the case of `C[C@@H]1CN(c2nc(N3CCOCC3)c3ccc(Nc4ccc5cccc(O)c5n4)nc3n2)C[C@H](C)O1` [Example 2ay], the IC50 is less than 10 µM.

For `C[C@@H]1CN(c2nc(N3CCOCC3)c3ccc(Nc4cccnc4)nc3n2)C[C@H](C)O1` [Example 2az], the half-maximal inhibitory concentration (IC50) is less than 1 µM. On the same count and under the same terms, the figure for `C[C@@H]1CN(c2nc(N3CCOCC3)c3ccc(Nc4ccncc4)nc3n2)C[C@H](C)O1` [Example 2ba] is less than 0.1 µM.

As for `C[C@@H]1CN(c2nc(N3CCOCC3)c3ccc(Nc4ccncn4)nc3n2)C[C@H](C)O1` [Example 2bb], the 50% inhibitory concentration (IC50) is less than 1 µM.

Take `C[C@@H]1CN(c2nc(N3CCOCC3)c3ccc(Nc4cnccn4)nc3n2)C[C@H](C)O1` [Example 2bc]: the IC50 is less than 10 µM. The same measure, in the same setting: the figure for `Cc1ccc(Nc2ccc3c(N4CCOCC4)nc(N4C[C@@H](C)O[C@@H](C)C4)nc3n2)nc1` [Example 2bd] is less than 1 µM; for `Cc1cccc(Nc2ccc3c(N4CCOCC4)nc(N4C[C@@H](C)O[C@@H](C)C4)nc3n2)n1` [Example 2be] it is less than 1 µM; for `Cc1cccnc1Nc1ccc2c(N3CCOCC3)nc(N3C[C@@H](C)O[C@@H](C)C3)nc2n1` [Example 2bg] it is less than 10 µM.

As for `C[C@@H]1CN(c2nc(N3CCOCC3)c3ccc(N(C)C)nc3n2)C[C@H](C)O1` [Example 2d], the IC50 was less than 10 µM. On the same count and under the same terms, the figure for `C[C@@H]1CN(c2nc(N3CCOCC3)c3ccc(Nc4cccc5cnccc45)nc3n2)C[C@H](C)O1` [Example 2f] is less than 10 µM; for `COC(=O)c1ccc(Nc2ccc3c(N4CCOCC4)nc(N4C[C@@H](C)O[C@@H](C)C4)nc3n2)cc1` [Example 2g] it is less than 1 µM; for `C[C@@H]1CN(c2nc(N3CCOCC3)c3ccc(Nc4ccc(C#N)cc4)nc3n2)C[C@H](C)O1` [Example 2h] it is less than 1 µM. The same measure, in the same setting: the figure for `C[C@H]1CCCCN1c1nc(N2CCOCC2)c2ccc(Nc3ccccc3)nc2n1` [Example 2i] is less than 1 µM; for `Cc1ccc(Nc2ccc3c(N4CCOCC4)nc(N4C[C@@H](C)O[C@@H](C)C4)nc3n2)cc1` [Example 2j] it is less than 1 µM; for `C[C@@H]1CN(c2nc(N3CCOCC3)c3ccc(Nc4ccc(Cl)cc4)nc3n2)C[C@H](C)O1` [Example 2k] it is less than 1 µM.

Take `Cc1cc([N+](=O)[O-])cc(Cl)c1Nc1ccc2c(N3CCOCC3)nc(N3C[C@@H](C)O[C@@H](C)C3)nc2n1` [Example 2l]: the 50% inhibitory concentration (IC50) was less than 10 µM.

As to `C[C@@H]1CN(c2nc(N3CCOCC3)c3ccc(Nc4cccc(C(=O)c5ccccc5)c4)nc3n2)C[C@H](C)O1` [Example 2m], the IC50 is less than 10 µM.

For `CC(C)c1cccc(Nc2ccc3c(N4CCOCC4)nc(N4C[C@@H](C)O[C@@H](C)C4)nc3n2)c1` [Example 2n], the IC50 was less than 1 µM. Same read-out and setting: the result for `C[C@@H]1CN(c2nc(N3CCOCC3)c3ccc(Nc4cccc5cccnc45)nc3n2)C[C@H](C)O1` [Example 2o] reads less than 10 µM; that for `COc1ccc(/C=C/c2ccc(Nc3ccc4c(N5CCOCC5)nc(N5C[C@@H](C)O[C@@H](C)C5)nc4n3)cc2)cc1` [Example 2p], less than 1 µM. The same measure, in the same setting: the figure for `C[C@@H]1CN(c2nc(N3CCOCC3)c3ccc(Nc4ccc(-n5cccc5)cc4)nc3n2)C[C@H](C)O1` [Example 2q] is less than 1 µM.

`C[C@@H]1CN(c2nc(N3CCOCC3)c3ccc(Nn4cnnc4)nc3n2)C[C@H](C)O1` [Example 2r]: the IC50 is less than 10 µM. The same measure, in the same setting: the result for `C[C@@H]1CN(c2nc(N3CCOCC3)c3ccc(Nc4nc(-c5ccccc5Cl)cs4)nc3n2)C[C@H](C)O1` [Example 2s] reads less than 10 µM. Regarding `Cc1cnccc1Nc1ccc2c(N3CCOCC3)nc(N3C[C@@H](C)O[C@@H](C)C3)nc2n1` [Example 2t], the IC50 is less than 1 µM. The same measure, in the same setting: the figure for `C=C(C)CNc1ccc2c(N3CCOCC3)nc(N3C[C@@H](C)O[C@@H](C)C3)nc2n1` [Example 2v] is less than 10 µM; for `C[C@@H]1CN(c2nc(N3CCOCC3)c3ccc(NC4CCN(C)CC4)nc3n2)C[C@H](C)O1` [Example 2w] it is less than 10 µM. Still for that read-out and setting: the figure for `Cc1cc(Nc2ccc3c(N4CCOCC4)nc(N4C[C@@H](C)O[C@@H](C)C4)nc3n2)no1` [Example 2x] is less than 10 µM; for `Cc1ccc(-n2nc(C)cc2Nc2ccc3c(N4CCOCC4)nc(N4C[C@@H](C)O[C@@H](C)C4)nc3n2)cc1` [Example 2y] it is less than 10 µM.

As for `C[C@@H]1CN(c2nc(N3CCOCC3)c3ccc(N)nc3n2)C[C@H](C)O1` [Example 3a], the IC50 was less than 1 µM. The same measure, in the same setting: the figure for `C[C@H]1CCCCN1c1nc(N2CCOCC2)c2ccc(N)nc2n1` [Example 3b] is less than 1 µM; for `CCNC(=O)Nc1ccc2c(N3CCOCC3)nc(N3C[C@@H](C)O[C@@H](C)C3)nc2n1` [Example 4a] it is less than 10 µM; for `C[C@@H]1CN(c2nc(N3CCOCC3)c3ccc(NC(=O)C4CCCC4)nc3n2)C[C@H](C)O1` [Example 5b] it is less than 10 µM. Still for that read-out and setting: the result for `C/C=C/C(=O)Nc1ccc2c(N3CCOCC3)nc(N3C[C@@H](C)O[C@@H](C)C3)nc2n1` [Example 5c] reads less than 1 µM; that for `C[C@@H]1CN(c2nc(N3CCOCC3)c3ccc(NC(=O)CSc4ccccc4)nc3n2)C[C@H](C)O1` [Example 5d], less than 10 µM. Still for that read-out and setting: the figure for `C[C@@H]1CN(c2nc(N3CCOCC3)c3ccc(NC(=O)c4cnc5ccccc5n4)nc3n2)C[C@H](C)O1` [Example 5e] is less than 10 µM. Consider `CC(=O)Nc1ccc2c(N3CCOCC3)nc(N3C[C@@H](C)O[C@@H](C)C3)nc2n1` [Example 5f], for which the IC50 is less than 10 µM. Take `C[C@@H]1CN(c2nc(N3CCOCC3)c3ccc(NC(=O)c4nc[nH]c4N)nc3n2)C[C@H](C)O1` [Example 5g]: the IC50 is less than 10 µM.

Consider `C[C@@H]1CN(c2nc(N3CCOCC3)c3ccc(NS(C)(=O)=O)nc3n2)C[C@H](C)O1` [Example 6], for which the IC50 was less than 10 µM. As to `CCCCOc1ccc2c(N3CCOCC3)nc(N3C[C@@H](C)O[C@@H](C)C3)nc2n1` [Example 7], the IC50 is less than 10 µM.

As for `COc1ccc(-c2ccc3c(N4CCOCC4)nc(N4C[C@@H](C)O[C@@H](C)C4)nc3n2)cc1CNCc1cccs1` [Example 8j], the IC50 is less than 0.1 µM.

The subject of a further assay is phosphorylation of Serine 473 in Akt in MDA-MB-468 cells. The assay can be described thus: In Vitro phospho-Ser473 Akt Assay (Acumen Explorer). The format is cell-based. Particulars: Homo sapiens, MDA-MB-468, read-out: IC50 values against mTOR (phospho-Ser473 Akt assay).
Take `CNc1nc(N2CCOC[C@@H]2C)c2ccc(-c3ccc(OC)c(CO)c3)nc2n1` [28 bp]: the IC50 was less than 11 µM.

On to `C[C@H]1COCCN1c1nc(N2CCOC[C@@H]2C)c2ccc(-c3ccc(F)nc3)nc2n1` [Example 11ah], for which the half-maximal inhibitory concentration (IC50) is less than 11 µM. Take `CNC(=O)c1ccc(-c2ccc3c(N4CCOC[C@@H]4C)nc(N4CCOC[C@@H]4C)nc3n2)cc1` [Example 11ak]: the IC50 is less than 0.1 µM. For `C[C@H]1COCCN1c1nc(N2CCOC[C@@H]2C)c2ccc(-c3ccncc3)nc2n1` [Example 11ar], the half-inhibitory concentration (IC50) was less than 11 µM. Same read-out and setting: the result for `C[C@H]1COCCN1c1nc(N2CCOC[C@@H]2C)c2ccc(-c3ccnc(F)c3)nc2n1` [Example 11au] reads less than 11 µM. Regarding `C[C@H]1COCCN1c1nc(N2CCOC[C@@H]2C)c2ccc(-c3cccc(C#N)c3)nc2n1` [Example 11aw], the IC50 was less than 11 µM. As to `C[C@H]1COCCN1c1nc(N2CCOC[C@@H]2C)c2ccc(-c3ccc(N)cc3)nc2n1` [Example 11az], the IC50 is less than 0.1 µM. The same measure, in the same setting: the figure for `C[C@H]1COCCN1c1nc(N2CCOC[C@@H]2C)c2ccc(-c3cccc(C(=O)N4CCN(C)CC4)c3)nc2n1` [Example 11bf] is less than 11 µM; for `C[C@H]1COCCN1c1nc(N2CCOC[C@@H]2C)c2ccc(-c3cccnc3)nc2n1` [Example 11bu] it is less than 11 µM.

The assay is the same for the next values; noted with them: Homo sapiens; MDA-MB-468 cells, compounds of Formula I(B); read-out: IC50 values against mTOR (phospho-Ser473 Akt assay).
For the molecule `COc1ccc(-c2ccc3c(N4CCOC[C@@H]4C)nc(N4CCOC[C@@H]4C)nc3n2)cc1CO` [Example 11a], the IC50 was less than 0.1 µM. Take `CNC(=O)c1cccc(-c2ccc3c(N4CCOC[C@@H]4C)nc(N4CCOC[C@@H]4C)nc3n2)c1` [Example 11ap]: the IC50 is less than 0.1 µM.
